Measured values from patent US20220401514A1, “ANTIMICROBIAL, BACTERIOPHAGE-DERIVED POLYPEPTIDES AND THEIR USE AGAINST GRAM-NEGATIVE AND ACID-FAST BACTERIA” (CONTRAFECT CORPORATION, priority 2019, published 2022).
Ends that are not written are not given here.

What was measured:
[1] = system: P. aeruginosa (CFS 1292); assay: microbe, parasite or virus in culture; type: cell-based, Pseudomonas aeruginosa
[2] = system: carbapenem-resistant P. aeruginosa clinical isolate CFS-1292; assay: MIC by modified CLSI broth microdilution against P. aeruginosa CFS-1292 (CAA, CAA + human serum); type: cell-based, Pseudomonas aeruginosa; conditions: for MIC (μg/mL) against CFS-1292 in 100% CAA (1st run/2nd run): 1st run or single value
[3] = system: Pseudomonas aeruginosa; assay: microbe, parasite or virus in culture; type: cell-based; conditions: P. aeruginosa isolates (n per peptide in table)
[4] = system: Enterobacter cloacae; assay: microbe, parasite or virus in culture; type: cell-based; conditions: for MIC: Enterobacter cloacae ATCC 13047, CAA supplemented with human serum
Procedure: (§1) Determination of Minimal Inhibitory Concentrations (MIC).
(§2) Additional MIC testing was performed for several peptides against the ESKAPE pathogens Escherichia coli, Enterobacter cloacae, Klebsiella pneumoniae, and Acinetobacter baumannii, in CAA supplemented with human serum (Table D).

[5] = system: Escherichia coli; assay: microbe, parasite or virus in culture; type: cell-based; conditions: for MIC: Escherichia coli ATCC 25922, CAA supplemented with human serum
Procedure: as §1, §2

[6] = system: Klebsiella pneumoniae; type: cell-based; conditions: for MIC50 / MIC100 / MIC Range: K. pneumoniae isolates (n per peptide in table); for MIC: Klebsiella pneumoniae HM-44, CAA supplemented with human serum
Procedure: as §1, §2

[7] = system: Acinetobacter baumannii; assay: microbe, parasite or virus in culture; type: cell-based; conditions: for MIC50 / MIC100 / MIC Range: A. baumannii isolates (n per peptide in table); for MIC: Acinetobacter baumannii ATCC BAA 747, CAA supplemented with human serum
[8] = system: S. maltophilia; assay: MIC against S. maltophilia isolates; type: cell-based, Stenotrophomonas maltophilia; conditions: S. maltophilia isolates (n per peptide in table)
Procedure: as §1
In addition to the results discussed above in Example 3, further testing was conducted on several Chp peptides. MIC values were determined against different species, including P. aeruginosa, K. pneumoniae, A. baumannii, E. cloacae, E. coli, and S. maltophilia, and the results are presented below in Tables 40-45, wherein n=number of isolates tested for each species and MIC is measured as μg/mL.

[9] = system: carbapenem-resistant bacterial strains; assay: organism not typed; type: cell-based
Description: as §1

[10] = Stability assessment in 100% CAA; type: in vitro ADME; design: unit not given beside the values
Procedure: Stability was assessed after incubation in 100% human serum at 37° C. after 10 minutes, 1 hour, and 2 hours.
Stability assessment was further conducted in 100% CAA and rabbit serum using the same methodology discussed above.

[11] = system: M. smegmatis; assay: 45 hr MIC against M. smegmatis (NTM), Mueller Hinton broth; type: cell-based, Mycobacterium smegmatis
[12] = system: M. fortuitum; assay: 45 hr MIC against M. fortuitum (NTM); type: cell-based, Mycobacterium fortuitum; conditions: M. fortuitum subsp. Fortuitum da Costa Cruz. ATCC 6841
[13] = system: M. avium; assay: 45 hr MIC against M. avium (NTM); type: cell-based, Mycobacterium avium; conditions: M. avium Chester ATCC 700898
[14] = system: M. intracellulare; assay: 45 hr MIC against M. intracellulare (NTM); type: cell-based, Mycobacterium intracellulare; conditions: M. intracellulare (Cuttino and McCabe) Runyon ATCC 13950
[15] = system: M. kansasii Hauduroy ATCC 12478; assay: 45 hr MIC against M. kansasii (NTM), Mueller Hinton broth; type: cell-based, Mycobacterium kansasii
[16] = system: Mycobacterium tuberculosis strains; conditions: Mycobacterium tuberculosis (Zopf) Lehmann and Neumann ATCC 35817
Procedure: MIC values for various Chp peptides were determined using the CLSI method for broth microdilution in 96-well microtiter format.
Next, MIC values for various Chp peptides were determined using the CLSI method above for broth microdilution in 96-well microtiter format for two different Mycobacterium tuberculosis strains. The MIC was determined as explained above for the NTM strains.

[17] = system: M. scrofulaceum; assay: 45 hr MIC against M. scrofulaceum (NTM); type: cell-based, Mycobacterium scrofulaceum; conditions: M. scrofulaceum Prissick and Masson ATCC 19981
[18] = E. cloacae isolates (n per peptide in table)
[19] = E. coli isolates (n per peptide in table)
[20] = carbapenem-resistant isolate PA19
[21] = carbapenem-resistant isolate PA20
[22] = carbapenem-resistant isolate PA21
[23] = carbapenem-resistant isolate PA22
[24] = carbapenem-resistant isolate PA23
[25] = carbapenem-resistant isolate PA24
[26] = carbapenem-resistant isolate WLC-452

Molecule | MIC (μg/mL) against CFS-1292 in 100% CAA (1st run/2nd run) [2] | MIC50 [3] | MIC100 [3] | MIC [4] | MIC [5] | MIC50 [6] | MIC100 [6] | MIC [6] | MIC50 [7] | MIC100 [7] | MIC [7] | MIC50 [8] | MIC (100% CAA) [10] | 45 hr MIC ([11]; M. smegmatis MC^2 155, Run #1) | 45 hr MIC ([11]; M. smegmatis MC^2 155, Run #2) | 45 hr MIC [12] | 45 hr MIC [13] | 45 hr MIC [14] | 45 hr MIC [15] | MIC (μg/mL) against CFS-1292 in CAA + […] human serum [2] | also measured
NC[C@H]1O[C@H](O[C@H]2[C@H](O)[C@@H](O[C@H]3O[C@H](CO)[C@@H](O)[C@H](N)[C@H]3O)[C@H](N)C[C@@H]2N)[C@H](N)C[C@@H]1O [Tobra] | – | – | – | – | – | – | – | – | – | – | – | – | – | – | – | – | – | – | – | – | Passage MIC Passage #1 (Untreated) ([1]; Passage #1, MIC of agent on untreated culture): 0.125 µg/mL; Passage MIC Passage #1 ([1]; Passage #1, colonies from spot dilution, duplicates (1),(2)): 0.5 µg/mL; Passage MIC Passage #2 (Untreated) ([1]; Passage #2, MIC of agent on untreated culture): 0.125 µg/mL; Passage MIC Passage #2 ([1]; Passage #2, colonies from spot dilution, duplicates (1),(2)): 0.5 µg/mL; Passage MIC Passage #3 (Untreated) ([1]; Passage #3, MIC of agent on untreated culture): 0.125 µg/mL; Passage MIC Passage #3 ([1]; Passage #3, colonies from spot dilution, duplicates (1),(2)): 0.5 µg/mL; Passage MIC Passage #4 (Untreated) ([1]; Passage #4, MIC of agent on untreated culture): 0.125 µg/mL; Passage MIC Passage #4 ([1]; Passage #4, colonies from spot dilution, duplicates (1),(2)): 0.5 µg/mL; Passage MIC Passage #5 (Untreated) ([1]; Passage #5, MIC of agent on untreated culture): 0.125 µg/mL; Passage MIC Passage #5 ([1]; Passage #5, colonies from spot dilution, duplicates (1),(2)): 1 µg/mL
MARRKKMKGKRDKRVFKQTANKTKAINISPKNMRGGTRL [Unp3] | 8 µg/mL | >8 µg/mL | >8 µg/mL | 8 µg/mL | 0.5 µg/mL | >8 µg/mL | >8 µg/mL | 4 µg/mL | >8 µg/mL | >8 µg/mL | 2 µg/mL | >8 µg/mL | 4 | 32 µg/mL | – | – | – | – | – | – | MIC50 [4, 18]: >8 µg/mL; MIC100 [4, 18]: >8 µg/mL; MIC Range [4, 18]: >8 µg/mL; MIC50 [5, 19]: >8 µg/mL; MIC100 [5, 19]: >8 µg/mL; MIC Range [6]: >8 µg/mL; MIC100 [8]: >8 µg/mL; MIC Range [8]: >8 µg/mL; MIC [9, 20]: 8 µg/mL; MIC [9, 21]: >8 µg/mL; MIC [9, 22]: >8 µg/mL; MIC [9, 23]: >8 µg/mL; MIC [9, 24]: >8 µg/mL; MIC [9, 25]: >8 µg/mL; MIC [9, 26]: >8 µg/mL
MKLTKSDIAYREALGLSTTDPLPAEIGMVTRRANRLKRPRKTARFR [Myo1] | >64 µg/mL | – | – | – | – | – | – | – | – | – | – | – | – | >64 µg/mL | >64 µg/mL | >64 µg/mL | 8 µg/mL | >64 µg/mL | >64 µg/mL | – | MIC [16]: 32 µg/mL
MKPLKRKPVQKARSAAKFRRNVSTVKAANMAVKPMRGGWRF [Fen7875] | 2 µg/mL | – | – | – | – | – | – | – | – | – | – | – | 4 | 4 µg/mL | 16 µg/mL | 8 µg/mL | 2 µg/mL | 8 µg/mL | 32 µg/mL | 2 µg/mL | 45 hr MIC [17]: 16 µg/mL
MKRRKMTRKGSKRLFTATADKTKSINTAPPPMRGGIRL [Chp7] | 16 µg/mL | – | – | >32 µg/mL | 8 µg/mL | – | – | 1 µg/mL | – | – | >32 µg/mL | – | 8 | 128 µg/mL | – | – | – | – | – | 1 µg/mL | –
MLTVWSDTPTIKRRKDMYRKRMSRKKSKKVFAKTAMKVNKRNHVKPMRGGYRI [Gkh3] | 0.5 µg/mL | 8 µg/mL | >8 µg/mL | 4 µg/mL | 2 µg/mL | >8 µg/mL | >8 µg/mL | 4 µg/mL | 0.5 µg/mL | 1 µg/mL | 4 µg/mL | 8 µg/mL | 0.5 | >128 µg/mL | – | – | – | – | – | 1 µg/mL | MIC50 [4, 18]: 4 µg/mL; MIC100 [4, 18]: 4 µg/mL; MIC50 [5, 19]: 1 µg/mL; MIC100 [5, 19]: 4 µg/mL; MIC Range [5, 19]: 0.5 to 8 µg/mL; MIC Range [7]: 0.25 to 1 µg/mL; MIC100 [8]: >8 µg/mL; MIC [9, 20]: 2 µg/mL; MIC [9, 21]: >8 µg/mL; MIC [9, 22]: >8 µg/mL; MIC [9, 23]: >8 µg/mL; MIC [9, 24]: 8 µg/mL; MIC [9, 25]: 8 µg/mL; MIC [9, 26]: 2 µg/mL
MMKYRKKMSAKSSRKQFTKGAMKVKGKNFTKPMRGGIRL [Unp5] | 2 µg/mL | >8 µg/mL | >8 µg/mL | 4 µg/mL | 1 µg/mL | >8 µg/mL | >8 µg/mL | 4 µg/mL | 4 µg/mL | 8 µg/mL | 8 µg/mL | >8 µg/mL | 2 | 8 µg/mL | – | – | – | – | – | 0.5 µg/mL | MIC Range [6]: >8 µg/mL; MIC Range [7]: 1 to 8 µg/mL; MIC100 [8]: >8 µg/mL; MIC Range [8]: >8 µg/mL; MIC [9, 20]: 8 µg/mL; MIC [9, 21]: >8 µg/mL; MIC [9, 22]: >8 µg/mL; MIC [9, 23]: >8 µg/mL; MIC [9, 24]: >8 µg/mL; MIC [9, 25]: >8 µg/mL; MIC [9, 26]: >8 µg/mL
MRKRMSKRVDKKVFRRTAASAKKINIDPKIYRGGIRL [Osp1] | 16 µg/mL | >8 µg/mL | >8 µg/mL | 32 µg/mL | 0.5 µg/mL | >8 µg/mL | >8 µg/mL | 0.125 µg/mL | 8 µg/mL | 8 µg/mL | 32 µg/mL | >8 µg/mL | 4 | 32 µg/mL | – | – | – | – | – | – | MIC Range [3]: >8 µg/mL; MIC Range [6]: >8 µg/mL; MIC Range [7]: 2 to 8 µg/mL; MIC100 [8]: >8 µg/mL; MIC Range [8]: >8 µg/mL; MIC [9, 20]: >8 µg/mL; MIC [9, 21]: >8 µg/mL; MIC [9, 22]: >8 µg/mL; MIC [9, 23]: >8 µg/mL; MIC [9, 24]: >8 µg/mL; MIC [9, 25]: >8 µg/mL; MIC [9, 26]: 8 µg/mL
MRPVKRSRVNKARSAGKFRKQVGKTKMANLRSNPMRGGWRL [HH3930] | 2 µg/mL | – | – | – | – | – | – | – | – | – | – | – | 2 | 4 µg/mL | 16 µg/mL | 8 µg/mL | 4 µg/mL | 16 µg/mL | 32 µg/mL | 4 µg/mL | 45 hr MIC [17]: 16 µg/mL
MRRKKMSRGKSKKLFRRTAKRVHRKNLRARPMRGGIRM [AVQ206] | 0.5 µg/mL | – | – | – | – | – | – | – | – | – | – | – | <0.25 | 4 µg/mL | 16 µg/mL | 2 µg/mL | 1 µg/mL | 4 µg/mL | 2 µg/mL | 0.25 µg/mL | 45 hr MIC [17]: 4 µg/mL
MRRYNVNKGKSAKKFRKQVSKTKVANLRSNPMRGGWRL [AGT915] | 2 µg/mL | – | – | – | – | – | – | – | – | – | – | – | 2 | 4 µg/mL | 1 µg/mL | 1 µg/mL | >64 µg/mL | >64 µg/mL | 1 µg/mL | 0.25 µg/mL | 45 hr MIC [17]: >64 µg/mL
MSKKASRKSFTKGAVKVHKKNVPTRVPMRGGIRL [Gkh2] | 16 µg/mL | – | – | 8 µg/mL | 1 µg/mL | – | – | 16 µg/mL | – | – | 8 µg/mL | – | 16 | 32 µg/mL | – | – | – | – | – | – | –
